Source: patent publication US12161630B2, “Methods to control infection using new generation small molecule growth inhibitors” (priority 2017, dated 2024)
In brackets after ≈: the same amount, converted by molar mass.

How the values were obtained:
Kan^R S. typhimurium = assay: Preventive efficacy in S. typhimurium-infected G. mellonella larvae; format: in vivo, Galleria mellonella; settings: 72 HPI; pretreated with 12.5 μg per larva 2 hrs before infection
Procedure: FIGS. 4(A-B). Preventive antimicrobial efficacy of SM treatment in S. typhimurium-infected G. mellonella. Larva were first treated with 12.5 μg SMs per larva (50 mg/kg), incubated for 2 hrs at 37° C. in the dark, then infected with 10^4 CFU per larva, and further incubated at 37° C. in the dark for 72 hrs. FIG. 4A: G. mellonella larva survival rate. Survival rate was monitored every 12 hours for 72 hrs. Infected larva treated with chloramphenicol control (CK) had 100% survival. FIG. 4B: Bacterial quantification of Salmonella inside larvae following death of larva or, if alive, after 72 hours of incubation. Light black dot: larva still alive after 72 hrs post-inoculation (HPI); Black dot: larvae dead before 72 HPI.
Effect of the selected four SMs on S. typhimurium intracellular survival in G. mellonella larvae: Wax moths were selected as mentioned previously in the toxicity assay section. First, the virulence of both Kan^R and WT S. typhimurium strains in G. mellonella was assessed. Briefly, a S. typhimurium suspension normalized at approximately 10^6 CFU/ml in 10 mM MgSO4 was used as the inoculum. […] Survival rate was monitored every 12 hrs. The bacterial quantification was performed once the larvae were considered dead (dark pigmentation or no reaction to a mechanical stimulus) or after the 72 hrs of incubation. […]

S. typhimurium WT [1] = assay: MIC and MBC dose-response, serotype Typhimurium; format: cell-based, Salmonella enterica subsp. enterica serovar Typhimurium LT2; settings: Salmonella serotype Typhimurium; MIC identical to MBC
Procedure: (§1) An overnight Salmonella suspension was normalized at 0.05 OD600 (approximately 3.5×10^7 CFU/ml) with an adjusted M9 minimal broth medium (12.7 mM Na2HPO4 7H2O; 22 mM KH2PO4; 18.7 mM NH4Cl; 2 mM MgSO4; 0.1 mM CaCl2; 0.4% glucose; 0.05% casamino acids). 100 μL of the suspension plus 2 μl of SMs (200 μM) were transferred into each well of a sterile, non-treated, flat bottom 96-well plate. Bacteria alone (negative control, NC), 2% DMSO plus bacteria (DMSO control), 20 μg/ml chloramphenicol or 50 μg/ml kanamycin plus bacteria (positive controls, PC), and M9 medium only were used as control. Plates were incubated in a Sunrise™ Tecan kinetic microplate reader for 12 hrs at 37° C. and the optical density (OD) was measure at 600 nm as described above. Percentage of inhibition=(OD600 SM−OD600 NC)/(OD600 NC)×100. […] Cultures from wells showing no turbidimetric increase were transferred onto a XLT4 agar plate. Plates were incubated at 37° C. for 36 hrs.
(§2) Screens were performed as described in the primary screen. The lowest SM concentration with a static effect was considered as the minimal inhibitory concentration (MIC) and the lowest SM concentration with a cidal effect was considered as the minimal bactericidal concentration (MBC).

Salmonella Heidelberg = assay: MIC and MBC dose-response, serotype Heidelberg; format: cell-based, Salmonella enterica; settings: MIC identical to MBC
Procedure: as §1, §2

Salmonella Javiana = assay: MIC and MBC dose-response, serotype Javiana; format: cell-based, Salmonella enterica; settings: MIC identical to MBC
Procedure: as §1, §2

Salmonella Braenderup = assay: MIC and MBC dose-response, serotype Braenderup; format: cell-based, Salmonella enterica; settings: MIC identical to MBC
Salmonella Albany = assay: MIC and MBC dose-response, serotype Albany; format: cell-based, Salmonella enterica; settings: MIC identical to MBC
Procedure: as §1, §2

S. typhimurium WT [2] = assay: Antimicrobial resistance studies (single step and sequential passage); format: cell-based, Salmonella enterica subsp. enterica serovar Typhimurium LT2
Procedure: Antimicrobial resistance studies: Single step and sequential passage resistance assays were performed as described (9). The MIC of the selected five SMs against S. typhimurium WT was used as reference for lethal (2×MIC) and sub-lethal (0.75×MIC) doses.
The medium was allowed to solidify overnight in the dark at room temperature. The next day, 100 μl of S. typhimurium bacteria (approximately 10^9 CFU) was transferred onto the adjusted M9 agar containing 2×MIC of SMs. S. typhimurium WT growth in 2% DMSO, 20 μg/ml chloramphenicol, or 50 μg/ml kanamycin, and adjusted M9 medium only were used as controls. The plate was sealed with parafilm and incubated for 15 days in the dark at 37° C. After 15 days, 100 μl of LB broth was added to the wells of 24-well plate showing no colonies in order to resuspend the potential surviving bacteria and transferred into a 5 ml tube.
The plate was incubated in the dark at 37° C., 175 rpm for 12 hrs. After this first passage, the plate was centrifuged for seven min at 4500 rpm. Supernatant was replaced with a fresh adjusted M9 broth media amended with 0.75×MIC of the corresponding SM. This procedure was repeated fourteen times. Following the 15th passage, a dose-response assay was performed on the remaining alive S. typhimurium bacteria as describe previously.

Salmonella Newport = assay: MIC and MBC dose-response, serotype Newport; format: cell-based, Salmonella enterica; settings: MIC identical to MBC
Procedure: as §1, §2

Salmonella Saint-Paul = assay: MIC and MBC dose-response, serotype Saint-Paul; format: cell-based; settings: MIC identical to MBC
Procedure: as §1, §2

S. typhimurium WT [3] = assay: High-throughput primary screen for S. typhimurium growth inhibitors at 200 μM; format: cell-based, Salmonella enterica subsp. enterica serovar Typhimurium LT2; settings: adjusted M9 minimal broth, 12 hrs, 37° C., bactericidal = 100% growth inhibition and no growth on XLT4 agar, bacteriostatic = 100% growth inhibition but growth on XLT4 agar
Procedure: Identification of S. typhimurium growth inhibitors: The 4182 small molecules (SMs) were screened at 200 μM against S. typhimurium WT using HTS assay in a 96-well plate format. An overnight Salmonella suspension was normalized at 0.05 OD600 (approximately 3.5×10^7 CFU/ml) with an adjusted M9 minimal broth medium (12.7 mM Na2HPO4 7H2O; 22 mM KH2PO4; 18.7 mM NH4Cl; 2 mM MgSO4; 0.1 mM CaCl2; 0.4% glucose; 0.05% casamino acids). 100 μL of the suspension plus 2 μl of SMs (200 μM) were transferred into each well of a sterile, non-treated, flat bottom 96-well plate. Bacteria alone (negative control, NC), 2% DMSO plus bacteria (DMSO control), 20 μg/ml chloramphenicol or 50 μg/ml kanamycin plus bacteria (positive controls, PC), and M9 medium only were used as control. Plates were incubated in a Sunrise™ Tecan kinetic microplate reader for 12 hrs at 37° C. and the optical density (OD) was measure at 600 nm as described above. Percentage of inhibition=[…]. SMs were identified as growth inhibitors if their inhibition value after incubation was above 20% (value representing the inhibition level monitored with the DMSO controls). Cultures from wells showing no turbidimetric increase were transferred onto a XLT4 agar plate. Plates were incubated at 37° C. for 36 hrs.

Salmonella Enteritidis = assay: MIC and MBC dose-response, serotype Enteritidis; format: cell-based, Salmonella enterica; settings: MIC identical to MBC
Procedure: as §1, §2

Salmonella Anatum = assay: MIC and MBC dose-response, serotype Anatum; format: cell-based, Salmonella enterica; settings: MIC identical to MBC
Procedure: as §1, §2

With `O=C(N[C@H](CO)[C@H](O)c1ccc([N+](=O)[O-])cc1)C(Cl)Cl` [chloramphenicol] the “survival of infected larvae” value (Kan^R S. typhimurium) was 100%.
`CN(CCO)CC(O)Cn1c2ccc(Br)cc2c2cc(Br)ccc21` (centres unmarked) [SM2, 1-(3,6-dibromo-9H-carbazol-9-yl)-3-[(2-hydroxyethyl)(methyl)amino]-2-propanol] was tested, and the “MIC/MBC” value (S. typhimurium WT [1]) was 100 µM (≈ 45.6 µg/mL), the “MIC/MBC” value (Salmonella Heidelberg) was 200 µM (≈ 91.2 µg/mL) and the “MIC/MBC” value (Salmonella Javiana) was 200 µM (≈ 91.2 µg/mL). For the same compound, the “MIC/MBC” value (Salmonella Braenderup) was 200 µM (≈ 91.2 µg/mL), the “MIC/MBC” value (Salmonella Albany) was 200 µM (≈ 91.2 µg/mL) and the “resistance after repeated exposure at sub-lethal dose” value (S. typhimurium WT [2]; 0.75×MIC in liquid medium, 15 passages at 37° C.) was “developed resistance mechanisms”. The “resistance after single exposure at a lethal dose” value (S. typhimurium WT [2]; 2×MIC in solid medium) was “developed resistance mechanisms”, the “SM concentration at which resistant bacteria were able to grow” value (S. typhimurium WT [2]; minimal growth condition, represents 4×MBC) was 400 µM and the “MIC/MBC” value (Salmonella Newport) was 200 µM (≈ 91.2 µg/mL). The “MIC/MBC” value (Salmonella Saint-Paul) was 200 µM (≈ 91.2 µg/mL), the “Effect on S. Typhimurium at 200 μM” value (S. typhimurium WT [3]) was “Bactericidal” and the “MIC/MBC” value (Salmonella Enteritidis) was 200 µM (≈ 91.2 µg/mL). For the same compound, the “MIC/MBC” value (Salmonella Anatum) was 200 µM (≈ 91.2 µg/mL).
